Measured values published in the NIST ThermoML archive (doi:10.1016/j.jct.2005.03.012).

Assay: excess molar enthalpy (molar enthalpy of mixing); xn = mol fraction of the nth substance listed
Conditions: Liquid

CO [methanol] + O
Conditions | excess molar enthalpy [kJ/mol]
425.1 K, 10000 kPa, x1 = 0.8 | 0.135
468.38 K, 10000 kPa, x1 = 0.4 | 0.499
468.72 K, 8500 kPa, x1 = 0.4 | 0.483
469.1 K, 10000 kPa, x1 = 0.6 | 0.477
469.29 K, 5000 kPa, x1 = 0.4 | 0.434
469.31 K, 8500 kPa, x1 = 0.6 | 0.462
469.39 K, 5000 kPa, x1 = 0.3 | 0.39
469.49 K, 5000 kPa, x1 = 0.5 | 0.437
469.5 K, 10000 kPa, x1 = 0.2 | 0.335
469.66 K, 8500 kPa, x1 = 0.2 | 0.332
469.81 K, 5000 kPa, x1 = 0.2 | 0.3
469.91 K, 5000 kPa, x1 = 0.6 | 0.402
470.63 K, 5000 kPa, x1 = 0.7 | 0.336
470.65 K, 10000 kPa, x1 = 0.4 | 0.509
470.78 K, 10000 kPa, x1 = 0.6 | 0.482
470.8 K, 10000 kPa, x1 = 0.8 | 0.296
471.01 K, 8500 kPa, x1 = 0.4 | 0.494
471.06 K, 8500 kPa, x1 = 0.8 | 0.288
471.22 K, 5000 kPa, x1 = 0.1 | 0.164
471.24 K, 5000 kPa, x1 = 0.4 | 0.435
471.34 K, 5000 kPa, x1 = 0.8 | 0.239
471.36 K, 5000 kPa, x1 = 0.5 | 0.435
471.45 K, 5000 kPa, x1 = 0.3 | 0.394
471.49 K, 8500 kPa, x1 = 0.6 | 0.472
471.54 K, 8500 kPa, x1 = 0.2 | 0.34
471.91 K, 5000 kPa, x1 = 0.6 | 0.399
472.04 K, 5000 kPa, x1 = 0.7 | 0.333
472.16 K, 10000 kPa, x1 = 0.8 | 0.299
472.23 K, 5000 kPa, x1 = 0.9 | 0.124
472.28 K, 5000 kPa, x1 = 0.8 | 0.235
472.49 K, 10000 kPa, x1 = 0.2 | 0.348
473.11 K, 5000 kPa, x1 = 0.2 | 0.302
473.15 K, 5000 kPa, x1 = 0.1 | 0.165
473.15 K, 5000 kPa, x1 = 0.2 | 0.301
473.15 K, 5000 kPa, x1 = 0.3 | 0.39
473.15 K, 5000 kPa, x1 = 0.4 | 0.431
473.15 K, 5000 kPa, x1 = 0.5 | 0.431
473.15 K, 5000 kPa, x1 = 0.6 | 0.398
473.15 K, 5000 kPa, x1 = 0.7 | 0.33
473.15 K, 5000 kPa, x1 = 0.8 | 0.232
473.15 K, 5000 kPa, x1 = 0.9 | 0.125
473.15 K, 8500 kPa, x1 = 0.2 | 0.342
473.15 K, 8500 kPa, x1 = 0.4 | 0.498
473.15 K, 8500 kPa, x1 = 0.6 | 0.474
473.15 K, 8500 kPa, x1 = 0.8 | 0.291
473.15 K, 10000 kPa, x1 = 0.2 | 0.346
473.15 K, 10000 kPa, x1 = 0.4 | 0.517
473.15 K, 10000 kPa, x1 = 0.6 | 0.49
473.15 K, 10000 kPa, x1 = 0.8 | 0.307
473.17 K, 5000 kPa, x1 = 0.9 | 0.119
473.36 K, 5000 kPa, x1 = 0.1 | 0.166
473.78 K, 8500 kPa, x1 = 0.8 | 0.294
474.92 K, 5000 kPa, x1 = 0.1 | 0.168
474.92 K, 5000 kPa, x1 = 0.2 | 0.302
474.92 K, 5000 kPa, x1 = 0.3 | 0.392
474.92 K, 5000 kPa, x1 = 0.4 | 0.43
474.92 K, 5000 kPa, x1 = 0.5 | 0.428
474.92 K, 5000 kPa, x1 = 0.6 | 0.394
474.92 K, 5000 kPa, x1 = 0.7 | 0.326
474.92 K, 5000 kPa, x1 = 0.8 | 0.224
474.92 K, 5000 kPa, x1 = 0.9 | 0.116
475.17 K, 10000 kPa, x1 = 0.2 | 0.357
475.17 K, 10000 kPa, x1 = 0.4 | 0.526
475.17 K, 10000 kPa, x1 = 0.6 | 0.494
475.17 K, 10000 kPa, x1 = 0.8 | 0.316
475.47 K, 8500 kPa, x1 = 0.2 | 0.347
475.47 K, 8500 kPa, x1 = 0.4 | 0.505
475.47 K, 8500 kPa, x1 = 0.6 | 0.48
475.47 K, 8500 kPa, x1 = 0.8 | 0.295
493.71 K, 10000 kPa, x1 = 0.4 | 0.536
494.59 K, 10000 kPa, x1 = 0.2 | 0.373
494.68 K, 10000 kPa, x1 = 0.6 | 0.493
495.72 K, 10000 kPa, x1 = 0.4 | 0.525
496.09 K, 10000 kPa, x1 = 0.2 | 0.37
496.33 K, 10000 kPa, x1 = 0.8 | 0.294
497.18 K, 10000 kPa, x1 = 0.6 | 0.484
498.15 K, 8500 kPa, x1 = 0.1 | 0.185
498.15 K, 8500 kPa, x1 = 0.2 | 0.333
498.15 K, 8500 kPa, x1 = 0.3 | 0.41
498.15 K, 8500 kPa, x1 = 0.4 | 0.444
498.15 K, 8500 kPa, x1 = 0.5 | 0.432
498.15 K, 8500 kPa, x1 = 0.6 | 0.393
498.15 K, 8500 kPa, x1 = 0.7 | 0.317
498.15 K, 8500 kPa, x1 = 0.8 | 0.219
498.15 K, 8500 kPa, x1 = 0.9 | 0.107
498.15 K, 10000 kPa, x1 = 0.2 | 0.366
498.15 K, 10000 kPa, x1 = 0.4 | 0.521
498.15 K, 10000 kPa, x1 = 0.6 | 0.479
498.15 K, 10000 kPa, x1 = 0.8 | 0.288
498.93 K, 10000 kPa, x1 = 0.8 | 0.287
500.09 K, 8500 kPa, x1 = 0.1 | 0.186
500.09 K, 8500 kPa, x1 = 0.2 | 0.321
500.09 K, 8500 kPa, x1 = 0.3 | 0.394
500.09 K, 8500 kPa, x1 = 0.4 | 0.422
500.09 K, 8500 kPa, x1 = 0.5 | 0.409
500.09 K, 8500 kPa, x1 = 0.6 | 0.363
500.09 K, 8500 kPa, x1 = 0.7 | 0.286
500.09 K, 8500 kPa, x1 = 0.8 | 0.195
500.09 K, 8500 kPa, x1 = 0.9 | 0.093
500.24 K, 10000 kPa, x1 = 0.2 | 0.364
500.24 K, 10000 kPa, x1 = 0.4 | 0.512
500.24 K, 10000 kPa, x1 = 0.6 | 0.47
500.24 K, 10000 kPa, x1 = 0.8 | 0.284
504.64 K, 10000 kPa, x1 = 0.4 | 0.463
